Test results published in ChEMBL document CHEMBL5537145, “Design, synthesis and evaluation of novel UDCA-aminopyrimidine hybrids as ATX inhibitors for the treatment of hepatic and pulmonary fibrosis” (Eur J Med Chem, 2024).
The source made the active and inactive calls. No cut-off for these calls is given here.

Columns and labels:
Autotaxin [1] = target: T1, Autotaxin (Homo sapiens, UniProt Q13822); assay: Inhibition of human ATX in using LPC as substrate by fluorescence based microplate reader assay
Autotaxin [2] = target: T1, Autotaxin; assay: Potency index, ratio of GLPG-1690 IC50 to test compound IC50 for inhibition of human ATX in using LPC as substrate by fluorescence based microplate reader assay
LX-2 [3] = assay: Cytotoxicity against human LX2 cells assessed as reduction in cell viability at 2.5 to 80 uM incubated for 48 hrs by MTT assay; format: toxicity, cell-based; settings: lx-2, 48 h, dose 2.5-80 µM
CCC-HPF-1 [4] = assay: Cytotoxicity against human CCC-HPF-1 cells assessed as reduction in cell viability at 2.5 to 80 uM incubated for 48 hrs by MTT assay; format: toxicity, cell-based; settings: ccc-hpf-1, 48 h, dose 2.5-80 µM
LX-2 [5] = assay: Anti-hepatic fibrosis activity against TGF-beta1 stimulated human LX2 cells assessed as reduction in alpha-SMA mRNA expression level at 5 to 20 uM incubated for 48 hrs by quantitative real-time PCR analysis; format: functional, cell-based; settings: dose 5-20 µM
LX-2 [6] = assay: Anti-hepatic fibrosis activity against TGF-beta1 stimulated human LX2 cells assessed as reduction in COL1A1 mRNA expression level at 5 to 20 uM incubated for 48 hrs by quantitative real-time PCR analysis; format: functional, cell-based; settings: dose 5-20 µM
LX-2 [7] = assay: Anti-hepatic fibrosis activity against TGF-beta1 stimulated human LX2 cells assessed as reduction in FN mRNA expression level at 5 to 20 uM incubated for 48 hrs by quantitative real-time PCR analysis; format: functional, cell-based; settings: dose 5-20 µM
CCC-HPF-1 [8] = assay: Anti-pulmonary fibrosis activity against TGF-beta1 stimulated human CCC-HPF-1 cells assessed as reduction in alpha-SMA mRNA expression level at 5 to 20 uM incubated for 48 hrs by quantitative real-time PCR analysis; format: functional, cell-based; settings: dose 5-20 µM
CCC-HPF-1 [9] = assay: Anti-pulmonary fibrosis activity against TGF-beta1 stimulated human CCC-HPF-1 cells assessed as reduction in COL1A1 mRNA expression level at 5 to 20 uM incubated for 48 hrs by quantitative real-time PCR analysis; format: functional, cell-based; settings: dose 5-20 µM
CCC-HPF-1 [10] = assay: Anti-pulmonary fibrosis activity against TGF-beta1 stimulated human CCC-HPF-1 cells assessed as reduction in FN mRNA expression level at 5 to 20 uM incubated for 48 hrs by quantitative real-time PCR analysis; format: functional, cell-based; settings: dose 5-20 µM
LX-2 [11] = assay: Anti-hepatic fibrosis activity against TGF-beta1 stimulated human LX2 cells assessed as reduction in alpha-SMA protein expression level at 5 to 20 uM incubated for 48 hrs by Western blotting analysis; format: functional, cell-based; settings: dose 5-20 µM
LX-2 [12] = assay: Anti-hepatic fibrosis activity against TGF-beta1 stimulated human LX2 cells assessed as reduction in COL1A1 protein expression level at 5 to 20 uM incubated for 48 hrs by Western blotting analysis; format: functional, cell-based; settings: dose 5-20 µM
LX-2 [13] = assay: Anti-hepatic fibrosis activity against TGF-beta1 stimulated human LX2 cells assessed as reduction in FN protein expression level at 5 to 20 uM incubated for 48 hrs by Western blotting analysis; format: functional, cell-based; settings: dose 5-20 µM
CCC-HPF-1 [14] = assay: Anti-pulmonary fibrosis activity against TGF-beta1 stimulated human CCC-HPF-1 cells assessed as reduction in alpha-SMA protein expression level at 5 to 20 uM incubated for 48 hrs by Western blotting analysis; format: functional, cell-based; settings: dose 5-20 µM
CCC-HPF-1 [15] = assay: Anti-pulmonary fibrosis activity against TGF-beta1 stimulated human CCC-HPF-1 cells assessed as reduction in COL1A1 protein expression level at 5 to 20 uM incubated for 48 hrs by Western blotting analysis; format: functional, cell-based; settings: dose 5-20 µM
CCC-HPF-1 [16] = assay: Anti-pulmonary fibrosis activity against TGF-beta1 stimulated human CCC-HPF-1 cells assessed as reduction in FN protein expression level at 5 to 20 uM incubated for 48 hrs by Western blotting analysis; format: functional, cell-based; settings: dose 5-20 µM
LX-2 [17] = assay: Anti-migratory activity against TGF-beta1 stimulated human LX2 cells at 10 uM incubated for 24 hrs by light microscopic analysis; format: functional, cell-based
CCC-HPF-1 [18] = assay: Anti-migratory activity against TGF-beta1 stimulated human CCC-HPF-1 cells at 10 uM incubated for 24 hrs by light microscopic analysis; format: functional, cell-based
LX-2 [19] = assay: Anti-hepatic fibrosis activity against TGF-beta1 stimulated human LX2 cells assessed as reduction in Smad2 phosphorylation incubated for 48 hrs by Western blotting analysis; format: functional, cell-based; settings: dose 5-20 µM
LX-2 [20] = assay: Anti-hepatic fibrosis activity against TGF-beta1 stimulated human LX2 cells assessed as reduction in Smad3 phosphorylation incubated for 48 hrs by Western blotting analysis; format: functional, cell-based; settings: dose 5-20 µM
CCC-HPF-1 [21] = assay: Anti-pulmonary fibrosis activity against TGF-beta1 stimulated human CCC-HPF-1 cells assessed as reduction in Smad2 phosphorylation incubated for 48 hrs by Western blotting analysis; format: functional, cell-based; settings: dose 5-20 µM
CCC-HPF-1 [22] = assay: Anti-pulmonary fibrosis activity against TGF-beta1 stimulated human CCC-HPF-1 cells assessed as reduction in Smad3 phosphorylation incubated for 48 hrs by Western blotting analysis; format: functional, cell-based; settings: dose 5-20 µM
LX-2 [23] = assay: Effect on total Smad2 level in TGF-beta1 stimulated human LX2 cells at 5 to 20 uM incubated for 48 hrs by Western blotting analysis; format: functional, cell-based; settings: dose 5-20 µM
LX-2 [24] = assay: Effect on total Smad3 level in TGF-beta1 stimulated human LX2 cells at 5 to 20 uM incubated for 48 hrs by Western blotting analysis; format: functional, cell-based; settings: dose 5-20 µM
CCC-HPF-1 [25] = assay: Effect on total Smad2 level in TGF-beta1 stimulated human CCC-HPF-1 cells at 5 to 20 uM incubated for 48 hrs by Western blotting analysis; format: functional, cell-based; settings: dose 5-20 µM
CCC-HPF-1 [26] = assay: Effect on total Smad3 level in TGF-beta1 stimulated human CCC-HPF-1 cells at 5 to 20 uM incubated for 48 hrs by Western blotting analysis; format: functional, cell-based; settings: dose 5-20 µM
LX-2 [27] = assay: Anti-hepatic fibrosis activity against TGF-beta1 stimulated human LX2 cells assessed as inhibition of Smad2/3 nuclear translocation at 10 uM incubated for 48 hrs by DAPI staining based immunofluorescence analysis; format: functional, cell-based
CCC-HPF-1 [28] = assay: Anti-pulmonary fibrosis activity against TGF-beta1 stimulated human CCC-HPF-1 cells assessed as inhibition of Smad2/3 nuclear translocation at 10 uM incubated for 48 hrs by DAPI staining based immunofluorescence analysis; format: functional, cell-based

C[C@H](CCC(=O)N1CCc2nc(NCc3ccccc3)ncc2C1)[C@H]1CC[C@H]2[C@@H]3[C@@H](O)C[C@@H]4C[C@H](O)CC[C@]4(C)[C@H]3CC[C@]12C
IC50 (Autotaxin [1]): 342 nM

C[C@H](CCC(=O)N1CCc2nc(NCc3cc(Cl)cc(Cl)c3)ncc2C1)[C@H]1CC[C@H]2[C@@H]3[C@@H](O)C[C@@H]4C[C@H](O)CC[C@]4(C)[C@H]3CC[C@]12C
IC50 (Autotaxin [1]): 40.2 nM

C[C@H](CCC(=O)N1CCc2nc(NCCc3ccccc3F)ncc2C1)[C@H]1CC[C@H]2[C@@H]3[C@@H](O)C[C@@H]4C[C@H](O)CC[C@]4(C)[C@H]3CC[C@]12C
IC50 (Autotaxin [1]): 15.6 nM

COc1ccc(CCNc2ncc3c(n2)CCN(C(=O)CC[C@@H](C)[C@H]2CC[C@H]4[C@@H]5[C@@H](O)C[C@@H]6C[C@H](O)CC[C@]6(C)[C@H]5CC[C@]24C)C3)cc1
IC50 (Autotaxin [1]): 136 nM

C[C@H](CCC(=O)N1CCc2nc(NCCc3ccc(Br)cc3)ncc2C1)[C@H]1CC[C@H]2[C@@H]3[C@@H](O)C[C@@H]4C[C@H](O)CC[C@]4(C)[C@H]3CC[C@]12C
IC50 (Autotaxin [1]): 46.3 nM

C[C@H](CCC(=O)N1CCc2nc(NCCc3ccc(Cl)cc3)ncc2C1)[C@H]1CC[C@H]2[C@@H]3[C@@H](O)C[C@@H]4C[C@H](O)CC[C@]4(C)[C@H]3CC[C@]12C
IC50 (Autotaxin [1]): 7.51 nM
Ratio IC50 (Autotaxin [2]): 9
Activity (LX-2 [3]): Non-Toxic
Activity (CCC-HPF-1 [4]): Non-Toxic
Activity (LX-2 [5]): Active
Activity (LX-2 [6]): Active
Activity (LX-2 [7]): Active
Activity (CCC-HPF-1 [8]): Active
Activity (CCC-HPF-1 [9]): Active
Activity (CCC-HPF-1 [10]): Active
Activity (LX-2 [11]): Active
Activity (LX-2 [12]): Active
Activity (LX-2 [13]): Active
Activity (CCC-HPF-1 [14]): Active
Activity (CCC-HPF-1 [15]): Active
Activity (CCC-HPF-1 [16]): Active
Activity (LX-2 [17]): Active
Activity (CCC-HPF-1 [18]): Active
Activity (LX-2 [19]): Dose-Dependent Effect
Activity (LX-2 [20]): Dose-Dependent Effect
Activity (CCC-HPF-1 [21]): Dose-Dependent Effect
Activity (CCC-HPF-1 [22]): Dose-Dependent Effect
Activity (LX-2 [23]): inactive
Activity (LX-2 [24]): inactive
Activity (CCC-HPF-1 [25]): inactive
Activity (CCC-HPF-1 [26]): inactive
Activity (LX-2 [27]): Active
Activity (CCC-HPF-1 [28]): Active

C[C@H](CCC(=O)N1CCc2nc(NCCc3cccc(Br)c3)ncc2C1)[C@H]1CC[C@H]2[C@@H]3[C@@H](O)C[C@@H]4C[C@H](O)CC[C@]4(C)[C@H]3CC[C@]12C
IC50 (Autotaxin [1]): 27.7 nM

C[C@H](CCC(=O)N1CCc2nc(N3CCC(c4ccccc4)CC3)ncc2C1)[C@H]1CC[C@H]2[C@@H]3[C@@H](O)C[C@@H]4C[C@H](O)CC[C@]4(C)[C@H]3CC[C@]12C
IC50 (Autotaxin [1]): 43.9 nM

C[C@H](CCC(=O)N1CCc2nc(NCCc3cccc(Cl)c3)ncc2C1)[C@H]1CC[C@H]2[C@@H]3[C@@H](O)C[C@@H]4C[C@H](O)CC[C@]4(C)[C@H]3CC[C@]12C
IC50 (Autotaxin [1]): 165 nM

C[C@H](CCC(=O)N1CCc2nc(NCCc3ccc(F)cc3)ncc2C1)[C@H]1CC[C@H]2[C@@H]3[C@@H](O)C[C@@H]4C[C@H](O)CC[C@]4(C)[C@H]3CC[C@]12C
IC50 (Autotaxin [1]): 91.7 nM

C[C@H](CCC(=O)N1CCc2nc(NC3Cc4ccc(Br)cc4C3)ncc2C1)[C@H]1CC[C@H]2[C@@H]3[C@@H](O)C[C@@H]4C[C@H](O)CC[C@]4(C)[C@H]3CC[C@]12C (some centres undefined)
IC50 (Autotaxin [1]): 15.4 nM

C[C@H](CCC(=O)N1CCc2nc(NCCc3cccc(F)c3)ncc2C1)[C@H]1CC[C@H]2[C@@H]3[C@@H](O)C[C@@H]4C[C@H](O)CC[C@]4(C)[C@H]3CC[C@]12C
IC50 (Autotaxin [1]): 41.4 nM
